How the values were obtained:
[1] = tested on: IPOHE (Morningglory, Ivyleaf); assay: Preemergence herbicidal evaluation; type: in vivo, Ipomoea hederacea; conditions: rated 4-5 weeks after treatment
Outline: (§1)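 Greenhouse preemergence test: seed-soil mix sown on ~1 inch soil; aqueous acetone spray at equivalent of ~0.0156–0.500 kg/ha; greenhouse-held and watered; scored 0–9 visually at 4–5 weeks.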

[2] = tested on: ECHORC (Watergrass (Calif.)); assay: Preemergence weed control under flooded paddy conditions; type: in vivo, Echinochloa oryzoides; conditions: rated 3-4 weeks after treatment
Outline: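 Seeds or propagules sown in top 0.5 cm of silt loam soil, flooded 1.5 to 3 cm above surface throughout. Compound in 50/50 v/v aqueous/acetone pipetted into flood water at about 0.0313 to 0.500 kg/ha. Visual 0-9 rating versus control after three to four weeks in greenhouse.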

ABUTH (Velvetleaf) [3] = assay: Postemergence herbicidal evaluation; type: in vivo, Abutilon theophrasti; conditions: postemergence
Outline: (§2)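 Rate range approx. 0.0156–0.500 kg/ha. Foliar application at 40 psi to ~2-week seedlings; surfactant 0.5% TWEEN 20 in 50/50 acetone/water. Evaluation 4–5 wk post-treatment by 0–9 visual injury score, means of replicate tests.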

AMBEL (Ragweed, Common) = assay: Preemergence herbicidal evaluation; type: in vivo, Ambrosia artemisifolia; conditions: rated 4-5 weeks after treatment
Outline: as §1

CYPIR (Rice Flatsedge) = assay: Postemergence weed control under flooded paddy conditions; type: in vivo, Cyperus iria; conditions: postemergence weeds, 3-4 weeks after treatment
Outline: (§3)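 Weeds 3 to 5 cm tall and rice seedlings at the 1.5 to 2.5 leaf stage were flooded, with water held 1.5 to 3 cm above the soil. Compounds in 50/50 v/v aqueous/acetone went into the flood water at about 0.0313 to 0.500 kg/ha. Visual 0-9 ratings versus control were made 3 to 4 weeks later.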

[4] = tested on: IPOHE (Morningglory, Ivyleaf); assay: Postemergence herbicidal evaluation; type: in vivo, Ipomoea hederacea; conditions: postemergence
Outline: as §2

SETVI (Foxtail, Green) = assay: Postemergence herbicidal evaluation; type: in vivo, Setaria viridis; conditions: postemergence
Outline: as §2

[5] = tested on: GLXMAW (Soybean, Williams); assay: Postemergence herbicidal evaluation; type: in vivo, Glycine max, (L.) Merr. cv Williams; conditions: postemergence
Outline: as §2

CASOB (Sicklepod) = assay: Preemergence herbicidal evaluation; type: in vivo, Cassia obtusifolia; conditions: rated 4-5 weeks after treatment
Outline: as §1

ABUTH (Velvetleaf) [6] = assay: Preemergence herbicidal evaluation; type: in vivo, Abutilon theophrasti; conditions: rated 4-5 weeks after treatment
Outline: as §1

ZEAMX (Corn, Field) = assay: Postemergence herbicidal evaluation; type: in vivo, Zea mays; conditions: postemergence
Outline: as §2

[7] = tested on: ECHORC (Watergrass (Calif.)); assay: Postemergence weed control under flooded paddy conditions; type: in vivo, Echinochloa oryzoides; conditions: postemergence weeds, 3-4 weeks after treatment
Outline: as §3

ECHCG (Barnyardgrass) = assay: Preemergence herbicidal evaluation; type: in vivo, Echinochloa crus-galli; conditions: rated 4-5 weeks after treatment
Outline: as §1

For `CCOC(=O)CN1C(=O)CN(C)C1=Nc1cc(-n2c(=O)cc(C(F)(F)F)n(C)c2=O)c(F)cc1Cl` [Compound 25, Ethyl 2-{{2-chloro-5-[3,6-dihydro-3-methyl-2,6-dioxo-4-(trifluoromethyl)-1(2H)-pyrimidinyl]-4-fluorophenyl}imino}-3-methyl-5-oxo-1-imidazolidineacetate], the “Preemergence herbicidal rating IPOHE” value ([1]; rate 0.0156 kg/ha) was 0.0, the “Preemergence herbicidal rating IPOHE” value ([1]; rate 0.0313 kg/ha) was 0.0 and the “IPOHE preemergence herbicidal rating” value ([1]; rate 0.0625 kg/ha) was 0.0. For the same molecule, the “IPOHE preemergence herbicidal rating” value ([1]; rate 0.1250 kg/ha) was 2.0, the “IPOHE preemergence herbicidal rating” value ([1]; rate 0.2500 kg/ha) was 5.0 and the “Herbicidal rating ECHORC” value ([2]; 0.0313 kg/ha) was 4.0. The “Herbicidal rating ECHORC” value ([2]; 0.0625 kg/ha) was 6.0, the “Herbicidal rating ECHORC” value ([2]; 0.1250 kg/ha) was 7.0 and the “Herbicidal rating ECHORC” value ([2]; 0.2500 kg/ha) was 9.0. It also gave an ABUTH herbicidal rating (ABUTH (Velvetleaf) [3]; rate 0.0156 kg/ha) of 9.0, an ABUTH herbicidal rating (ABUTH (Velvetleaf) [3]; rate 0.0313 kg/ha) of 9.0 and an ABUTH herbicidal rating (ABUTH (Velvetleaf) [3]; rate 0.0625 kg/ha) of 9.0. The “Preemergence herbicidal rating AMBEL” value (AMBEL (Ragweed, Common); rate 0.0156 kg/ha) was 0.0, the “Preemergence herbicidal rating AMBEL” value (AMBEL (Ragweed, Common); rate 0.0313 kg/ha) was 2.0 and the “AMBEL preemergence herbicidal rating” value (AMBEL (Ragweed, Common); rate 0.0625 kg/ha) was 9.0. The “AMBEL preemergence herbicidal rating” value (AMBEL (Ragweed, Common); rate 0.1250 kg/ha) was 9.0, the “AMBEL preemergence herbicidal rating” value (AMBEL (Ragweed, Common); rate 0.2500 kg/ha) was 9.0 and the “Herbicidal rating CYPIR” value (CYPIR (Rice Flatsedge); rate 0.0313 kg/ha) was 0.0. For the same molecule, the “Herbicidal rating CYPIR” value (CYPIR (Rice Flatsedge); rate 0.0625 kg/ha) was 0.0, the “Herbicidal rating CYPIR” value (CYPIR (Rice Flatsedge); rate 0.1250 kg/ha) was 0.0 and the “Herbicidal rating CYPIR” value (CYPIR (Rice Flatsedge); rate 0.2500 kg/ha) was 0.0. For the same molecule, the IPOHE herbicidal rating ([4]; rate 0.0156 kg/ha) was 9.0, the IPOHE herbicidal rating ([4]; rate 0.0313 kg/ha) was 9.0 and the IPOHE herbicidal rating ([4]; rate 0.0625 kg/ha) was 9.0. The SETVI herbicidal rating (SETVI (Foxtail, Green); rate 0.0156 kg/ha) was 0.0, the SETVI herbicidal rating (SETVI (Foxtail, Green); rate 0.0313 kg/ha) was 0.0 and the SETVI herbicidal rating (SETVI (Foxtail, Green); rate 0.0625 kg/ha) was 0.0. It also gave a GLXMAW herbicidal rating ([5]; rate 0.0156 kg/ha) of 7.0, a GLXMAW herbicidal rating ([5]; rate 0.0313 kg/ha) of 7.5 and a GLXMAW herbicidal rating ([5]; rate 0.0625 kg/ha) of 8.0. For the same molecule, the “Preemergence herbicidal rating CASOB” value (CASOB (Sicklepod); rate 0.0156 kg/ha) was 0.0, the “Preemergence herbicidal rating CASOB” value (CASOB (Sicklepod); rate 0.0313 kg/ha) was 0.0 and the “CASOB preemergence herbicidal rating” value (CASOB (Sicklepod); rate 0.0625 kg/ha) was 0.0. The “CASOB preemergence herbicidal rating” value (CASOB (Sicklepod); rate 0.1250 kg/ha) was 2.0, the “CASOB preemergence herbicidal rating” value (CASOB (Sicklepod); rate 0.2500 kg/ha) was 3.0 and the “Preemergence herbicidal rating ABUTH” value (ABUTH (Velvetleaf) [6]; rate 0.0156 kg/ha) was 9.0. For the same molecule, the “Preemergence herbicidal rating ABUTH” value (ABUTH (Velvetleaf) [6]; rate 0.0313 kg/ha) was 9.0, the “ABUTH preemergence herbicidal rating” value (ABUTH (Velvetleaf) [6]; rate 0.0625 kg/ha) was 9.0 and the “ABUTH preemergence herbicidal rating” value (ABUTH (Velvetleaf) [6]; rate 0.1250 kg/ha) was 9.0. The “ABUTH preemergence herbicidal rating” value (ABUTH (Velvetleaf) [6]; rate 0.2500 kg/ha) was 9.0, the ZEAMX herbicidal rating (ZEAMX (Corn, Field); rate 0.0156 kg/ha) was 3.5 and the ZEAMX herbicidal rating (ZEAMX (Corn, Field); rate 0.0313 kg/ha) was 5.5. For the same molecule, the ZEAMX herbicidal rating (ZEAMX (Corn, Field); rate 0.0625 kg/ha) was 7.0, the “Herbicidal rating ECHORC” value ([7]; rate 0.0313 kg/ha) was 4.0 and the “Herbicidal rating ECHORC” value ([7]; rate 0.0625 kg/ha) was 6.0. The “Herbicidal rating ECHORC” value ([7]; rate 0.1250 kg/ha) was 7.0, the “Herbicidal rating ECHORC” value ([7]; rate 0.2500 kg/ha) was 9.0 and the “Preemergence herbicidal rating ECHCG” value (ECHCG (Barnyardgrass); rate 0.0156 kg/ha) was 0.0. For the same molecule, the “Preemergence herbicidal rating ECHCG” value (ECHCG (Barnyardgrass); rate 0.0313 kg/ha) was 0.0, the “ECHCG preemergence herbicidal rating” value (ECHCG (Barnyardgrass); rate 0.0625 kg/ha) was 0.0 and the “ECHCG preemergence herbicidal rating” value (ECHCG (Barnyardgrass); rate 0.1250 kg/ha) was 0.0. The “ECHCG preemergence herbicidal rating” value (ECHCG (Barnyardgrass); rate 0.2500 kg/ha) was 7.0.
In the case of `Cn1c(C(F)(F)F)cc(=O)n(-c2cc(N=C3SCC(=O)N3Cc3ccccc3)c(Cl)cc2F)c1=O` [Compound 26], the “Preemergence herbicidal rating IPOHE” value ([1]; rate 0.0156 kg/ha) is reported as 0.0, the “Preemergence herbicidal rating IPOHE” value ([1]; rate 0.0313 kg/ha) is reported as 0.0 and the “Preemergence herbicidal rating IPOHE” value ([1]; rate 0.0625 kg/ha) is reported as 0.0. The “Preemergence herbicidal rating IPOHE” value ([1]; rate 0.1250 kg/ha) was 2.0, the “Preemergence herbicidal rating IPOHE” value ([1]; rate 0.2500 kg/ha) was 3.0 and the “Herbicidal rating ECHORC” value ([2]; 0.0313 kg/ha) was 7.0. For the same molecule, the “Herbicidal rating ECHORC” value ([2]; 0.0625 kg/ha) was 9.0, the “Herbicidal rating ECHORC” value ([2]; 0.1250 kg/ha) was 9.0 and the “Herbicidal rating ECHORC” value ([2]; 0.2500 kg/ha) was 9.0. For the same molecule, the ABUTH herbicidal rating (ABUTH (Velvetleaf) [3]; rate 0.0156 kg/ha) was 9.0, the ABUTH herbicidal rating (ABUTH (Velvetleaf) [3]; rate 0.0313 kg/ha) was 9.0 and the ABUTH herbicidal rating (ABUTH (Velvetleaf) [3]; rate 0.0625 kg/ha) was 9.0. The “Preemergence herbicidal rating AMBEL” value (AMBEL (Ragweed, Common); rate 0.0156 kg/ha) was 0.0, the “Preemergence herbicidal rating AMBEL” value (AMBEL (Ragweed, Common); rate 0.0313 kg/ha) was 0.0 and the “Preemergence herbicidal rating AMBEL” value (AMBEL (Ragweed, Common); rate 0.0625 kg/ha) was 0.0. For the same molecule, the “Preemergence herbicidal rating AMBEL” value (AMBEL (Ragweed, Common); rate 0.1250 kg/ha) was 5.0, the “Preemergence herbicidal rating AMBEL” value (AMBEL (Ragweed, Common); rate 0.2500 kg/ha) was 5.0 and the “Herbicidal rating CYPIR” value (CYPIR (Rice Flatsedge); rate 0.0313 kg/ha) was 2.0. The “Herbicidal rating CYPIR” value (CYPIR (Rice Flatsedge); rate 0.0625 kg/ha) was 4.0, the “Herbicidal rating CYPIR” value (CYPIR (Rice Flatsedge); rate 0.1250 kg/ha) was 7.0 and the “Herbicidal rating CYPIR” value (CYPIR (Rice Flatsedge); rate 0.2500 kg/ha) was 9.0. For the same molecule, the IPOHE herbicidal rating ([4]; rate 0.0156 kg/ha) was 9.0, the IPOHE herbicidal rating ([4]; rate 0.0313 kg/ha) was 9.0 and the IPOHE herbicidal rating ([4]; rate 0.0625 kg/ha) was 9.0. It also gave an SETVI herbicidal rating (SETVI (Foxtail, Green); rate 0.0156 kg/ha) of 0.0, an SETVI herbicidal rating (SETVI (Foxtail, Green); rate 0.0313 kg/ha) of 0.0 and an SETVI herbicidal rating (SETVI (Foxtail, Green); rate 0.0625 kg/ha) of 0.0. The GLXMAW herbicidal rating ([5]; rate 0.0156 kg/ha) was 5.5, the GLXMAW herbicidal rating ([5]; rate 0.0313 kg/ha) was 5.5 and the GLXMAW herbicidal rating ([5]; rate 0.0625 kg/ha) was 6.0. The “Preemergence herbicidal rating CASOB” value (CASOB (Sicklepod); rate 0.0156 kg/ha) was 0.0, the “Preemergence herbicidal rating CASOB” value (CASOB (Sicklepod); rate 0.0313 kg/ha) was 0.0 and the “Preemergence herbicidal rating CASOB” value (CASOB (Sicklepod); rate 0.0625 kg/ha) was 0.0. The “Preemergence herbicidal rating CASOB” value (CASOB (Sicklepod); rate 0.1250 kg/ha) was 0.0, the “Preemergence herbicidal rating CASOB” value (CASOB (Sicklepod); rate 0.2500 kg/ha) was 0.0 and the “Preemergence herbicidal rating ABUTH” value (ABUTH (Velvetleaf) [6]; rate 0.0156 kg/ha) was 0.0. The “Preemergence herbicidal rating ABUTH” value (ABUTH (Velvetleaf) [6]; rate 0.0313 kg/ha) was 0.0, the “Preemergence herbicidal rating ABUTH” value (ABUTH (Velvetleaf) [6]; rate 0.0625 kg/ha) was 0.0 and the “Preemergence herbicidal rating ABUTH” value (ABUTH (Velvetleaf) [6]; rate 0.1250 kg/ha) was 6.0. The “Preemergence herbicidal rating ABUTH” value (ABUTH (Velvetleaf) [6]; rate 0.2500 kg/ha) was 9.0, the ZEAMX herbicidal rating (ZEAMX (Corn, Field); rate 0.0156 kg/ha) was 3.5 and the ZEAMX herbicidal rating (ZEAMX (Corn, Field); rate 0.0313 kg/ha) was 4.5. The ZEAMX herbicidal rating (ZEAMX (Corn, Field); rate 0.0625 kg/ha) was 5.5, the “Herbicidal rating ECHORC” value ([7]; rate 0.0313 kg/ha) was 7.0 and the “Herbicidal rating ECHORC” value ([7]; rate 0.0625 kg/ha) was 9.0. For the same molecule, the “Herbicidal rating ECHORC” value ([7]; rate 0.1250 kg/ha) was 9.0, the “Herbicidal rating ECHORC” value ([7]; rate 0.2500 kg/ha) was 9.0 and the “Preemergence herbicidal rating ECHCG” value (ECHCG (Barnyardgrass); rate 0.0156 kg/ha) was 0.0. For the same molecule, the “Preemergence herbicidal rating ECHCG” value (ECHCG (Barnyardgrass); rate 0.0313 kg/ha) was 0.0, the “Preemergence herbicidal rating ECHCG” value (ECHCG (Barnyardgrass); rate 0.0625 kg/ha) was 0.0 and the “Preemergence herbicidal rating ECHCG” value (ECHCG (Barnyardgrass); rate 0.1250 kg/ha) was 1.0. For the same molecule, the “Preemergence herbicidal rating ECHCG” value (ECHCG (Barnyardgrass); rate 0.2500 kg/ha) was 2.0.

Reference: US20020137929A1, “1 - (3-heterocyclylphenyl) isothiourea, -isourea, -guanidine and -amidine herbicidal agents” (Intellectual Property Department, BASF Aktiengesellschaft, priority 1998, published 2002)
